Test results taken from patent publication US5242945A, “Tetronic and thiotetronic acid derivatives as phospholipase A2 inhibitors” (American Home Products Corporation, priority 1991, dated 1993).

Legend:
[1] = target: T1, human synovial fluid PLA2 (Homo sapiens, UniProt P14555); assay: in vitro isolated phospholipase A2 assay, human synovial fluid PLA2; type: biochemical; settings: for inhibition at 10 µM / inhibition at 50 µM: read-out: % Inhibition HSF (human synovial fluid)
T1 construct: Purified human synovial fluid; from tissue; host or cells: human synovial fluid
T1 sequence (P14555 21-144): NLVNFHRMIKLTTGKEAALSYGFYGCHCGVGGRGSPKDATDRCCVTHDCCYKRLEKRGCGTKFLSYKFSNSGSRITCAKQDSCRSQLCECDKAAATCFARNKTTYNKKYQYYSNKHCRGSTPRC
Method: (§1) The compounds of the invention are tested in an in vitro isolated phospholipase A2 assay to determine the ability of the test compounds to inhibit the release of arachidonic acid from an arachidonic acid-containing substrate by the action of phospholipase A2 enzyme from human and non-human sources.
(§2) Into a 15 mL polypropylene tube are added the following:
(§3) ^3 H-AA E. coli substrate^1
(§4) Tris-HCl (0.5 M) pH 7.5^3
(§5) PLA2 25 Volume yielding 12%
(§6) 100 hydrolysis in 10 min.
(§7) *pre-incubate at room temperature 30 min prior to substrate addition.
(§8) ^6 Two human PLA2 enzymes are used: a) Semipurified human
(§9) platelet acid extract PLA2 (in 10 mM sodium acetate buffer, pH 4.5).
(§10) Remove protein precipitate by centrifugation at about 2200 rpm for 10
(§11) minutes. b) Purified human synovial fluid.
(§12) Incubate the 100 μL reaction mixture for 10 minutes at 37° C. in a shaking water bath. The reaction is terminated by the addition of 2 mL tetrahydrofuran, followed by vortexing. NH2 columns (100 μg/mL--Analytichem International) are conditioned with 0.5 mL tetrahydrofuran followed by 0.5 mL tetrahydrofuran/water (2 mL:0.1 mL, v/v).
(§13) The sample is loaded onto the columns and slowly drawn through them. The hydrolyzed arachidonic acid retained in the columns is eluted therefrom with 1 mL tetrahydrofuran/glacial acetic acid (2%). The arachidonic acid is transferred to scintillation vials and quantitated by β-counting analysis. A "total counts" sample is prepared by pipetting 25 μL ^3 H-arachidonate E. coli directly into a scintillation vial to which is added 1 mL tetrahydrofuran. 10 mL aquasol (scintillation cocktail) is added to all samples.

human platelet PLA2 = target: T2, human platelet PLA2 (Homo sapiens, UniProt P14555); assay: in vitro isolated phospholipase A2 assay, human platelet PLA2; type: biochemical; settings: for inhibition at 10 µM / inhibition at 50 µM: read-out: % Inhibition HP (human platelet)
T2 construct: platelet acid extract PLA2; from tissue; host or cells: human platelets, semipurified acid extract
T2 sequence (P14555 21-144): T1 sequence (P14555 21-144)
Method: as §1, §2, §3, §4, §5, §6, §7, §8, §9, §10, §11, §12, §13

[2] = at 10 μM, + values given without explanation

| Compound | inhibition at 10 µM [1, 2] [%] | inhibition at 10 µM (human platelet PLA2; [2]) [%] | other results |
| --- | --- | --- | --- |
| 4-Hydroxy-3-(1-oxoeicosanoyl)-2(5H)-furanone [Example 11] |  |  | % Inhibition HSF (human synovial fluid) [1, 2]: 32%; % Inhibition HP (human platelet) (human platelet PLA2; [2]): 6.7% |
| CCCCCCCC[C@@H]1C[C@@H]1CCCCCCCC(=O)C1=C(O)CSC1=O (relative stereo) [Example 52, 4-Hydroxy-3-[(Z)-8-(2-octylcyclopropyl)-1-oxooctyl]-2(5H)-thiophenone] | 18.6 | 8.4 |  |
| CCCCC[C@@H]1C[C@@H]1CC(=O)C1=C(O)COC1=O (relative stereo) [Example 53, 4-Hydroxy-3-[(Z)-1-oxo-2-(2-pentylcyclopropy)ethyl]-2(5H)-furanone] | 0.1 | 1.7 |  |
| O=C(CCc1ccccc1)C1=C(O)COC1=O [Example 2, 4-Hydroxy-3-(1-oxo-3-phenylpropyl)-2(5H)-furanone] |  |  | inhibition at 50 µM [1]: 27%; inhibition at 50 µM (human platelet PLA2): 8% |
| O=C(COCc1ccccc1)C1=C(O)COC1=O [Example 3, 4-Hydroxy-3-[(phenylmethoxy)acetyl]-2(5H)-furanone] |  |  | inhibition at 50 µM [1]: 25%; inhibition at 50 µM (human platelet PLA2): 3.5% |
| O=C(CCc1c[nH]c2ccccc12)C1=C(O)COC1=O [Example 4, 4-Hydroxy-3-[3-(1H-indol-3-yl)-1-oxopropyl]-2(5H)-furanone] |  |  | inhibition at 50 µM [1]: 25%; inhibition at 50 µM (human platelet PLA2): 10% |
| O=C(CCCc1c[nH]c2ccccc12)C1=C(O)COC1=O [Example 5, 4-Hydroxy-3-[4-(1H-indol-3-yl)-1-oxobutyl]-2(5H)-furanone] |  |  | inhibition at 50 µM [1]: 11%; inhibition at 50 µM (human platelet PLA2): 0% |
| O=C(/C=C/c1cccc(C(F)(F)F)c1)C1=C(O)COC1=O [Example 10, (E)-4-Hydroxy-3-(1-oxo-3-(3-(trifluoromethyl)phenyl)-2-propenyl)-2 (5H)-furanone] | 34 | 9.6 |  |
| COc1ccc(OC)c(/C=C/C(=O)C2=C(O)COC2=O)c1 [Example 13, (E)-3-(3-(2,5-Dimethoxyphenyl)-1-oxo-2-propenyl)-4-hydroxy-2 (5H)-furanone] | 34 | 11 |  |
| COc1ccc(/C=C/C(=O)C2=C(O)COC2=O)cc1OC [Example 16, (E)-3-(3-(3,4-Dimethoxyphenyl)-1-oxo-2-propenyl)-4-hydroxy-2 (5H)-furanone] | 5.5 | 2.1 |  |
| CCCCCCCC/C=C\CCCCCCCC(=O)C1=C(O)C(C)(C)OC1=O [Example 17, (Z)-4-Hydroxy-5,5-dimethyl-3-(1-oxo-9-octadecenyl)-2(5H)-furanone] | 9 | 16 |  |
| O=C(CCCCCOc1ccc(Cl)cc1)C1=C(O)COC1=O [Example 21, 4-Hydroxy-3-[6-(4-chlorophenoxy)-1-oxohexyl]-2(5H)-furanone] | 24 | 2.5 |  |
| CCCCCCCC/C=C\CCCCCCCC(=O)OCC(CCC(=O)C1=C(O)COC1=O)OC(=O)CCCCCCC/C=C\CCCCCCCC (stereo not drawn) [Example 24, (Z)-9-Octadecanoic acid 5-(2,5-dihydro-4-hydroxy-3-furanyl)-5-oxo-1,2-pentanediyl ester] | 79.5 | 56.6 |  |
| CCCCCCCC/C=C\CCCCCCCC(=O)OCC(CCC(=O)O)OC(=O)CCCCCCC/C=C\CCCCCCCC (stereo not drawn) [Example 24A, 4,5-Bis[((Z)-1-oxo-9-octadecenyl)oxy]pentanoic acid] | 80.7 | 45.4 |  |
| CCCCCCCCC#CCCCCCCCC(=O)C1=C(O)COC1=O [Example 27, 4-Hydroxy-3-(1-oxo-9-octadecynyl)-2(5H)-furanone] | 31.2 | 34.9 |  |
| CCCCCCCCCCCCCCCCCC(=O)C1=C(O)COC1=O [Example 28, 4-Hydroxy-3-(1-oxooctadecyl)-2(5H)-furanone] | 12.6 | 37.4 |  |
| CC1=C(CC(=O)O)c2cc(F)ccc2/C1=C\c1ccc([S+](C)[O-])cc1 (stereo not drawn) [sulindac, reference compound] |  |  | IC50 [1]: 30.2 µM |
